Source: patent US10137185B2, “PAP peptide analogues” (THE NOTTINGHAM TRENT UNIVERSITY, priority 2014, dated 2018)
Where “and” joins values, the source holds several entries; their conditions need not be identical. Equal entries are not always repeated.

Tested on: PBMCs isolated from patients with prostate cancer
Assay: IFNγ ELISPOT of pre- and post-vaccination PBMCs, Norway clinical trial (mRNA-transfected DC vaccine)
Assay type: cell-based, human
Settings: for post-vaccination samples with significantly higher peptide-specific IFNγ response than pre-vaccination: of 8 responder samples, 48 hours
Excerpt: FIG. 4. The flow chart of Norway clinical trial. Monocytes were isolated from patients with prostate cancer and cultured in vitro. mRNA isolated from the prostate cancer cell lines DU145, LNCAP and PC3 were transfected into immature dendritic cells (DCs). The DCs were then allowed to mature and were re-infused back into the patient. PBMCs isolated a week before (pre-vaccination) and 12 weeks after immunisations (post-vaccination) were used in this study. The patients were categorised as responders and non-responders based on the PSA levels and also metastatic state of the disease based on bone scans post immunisation.
FIG. 5. IFNγ response of PBMCs isolated from patients with prostate cancer who had responded to the therapy and were categorised as being ‘responders’ on the basis of the criteria detailed above (Norway Clinical Trial) after re-stimulation with PAP-115-123 epitope peptide (10 μg), as determined using the ELISPOT assay. PBMCs isolated pre-vaccination (black bars) and post vaccination (red bars) are compared. Patient samples are represented as p10, p12, p15 etc. The cryopreserved PBMCs were washed and rested overnight, at which time 4×10^4 cells were added to each well of an ELISPOT plate. PAP-115-123 epitope peptide (10 μg) was added to each well and the cells cultured for 48 hours. The plates were then washed according to the manufacturer's protocol. PBMCs cultured with an HIV-derived peptide or no added peptide were used as controls. Comparisons of means (±SEM) between groups (pre-vaccination or post-vaccination PBMCs) are made using an unpaired t test.
FIG. 6. IFNγ response of PBMCs isolated from patients with prostate cancer who had responded to the therapy and were categorised as being ‘responders’ on the basis of the criteria detailed above after re-stimulation with PAP-115-123 epitope peptide (1 μg), as determined using the ELISPOT assay. PBMCs isolated pre-vaccination (black bars) and post-vaccination (red bars) are compared here. Patient samples are represented as p10, p12, p15 etc. The cryopreserved PBMCs were washed and rested overnight, at which time 4×10^4 cells were added to each well of an ELISPOT plate. PAP-115-123 epitope peptide (1 μg) was added to each well and the cells cultured for 48 hours. The plates were then washed according to manufacturer's protocol. PBMCs cultured with HIV-derived peptide or no added peptide were used as controls. Comparisons of means (±SEM) between groups (pre-vaccination or post-vaccination PBMCs) are made using an unpaired t test.
FIG. 7. Fold change in the IFNγ response generated by PBMCs isolated from patients with prostate cancer from the Norway Clinical Trial after restimulation with PAP-115-123 epitope peptide (10 μg), as determined using the ELISPOT assay. Patients that were reported to have responded to the treatment (p10, p12, p15, p19, p101, p102, p107, p108) are indicated by red bars. […] The cryopreserved PBMCs were washed and rested overnight, at which time 4×10^4 cells were added to each well of an ELISPOT plate. PAP-115-123 epitope peptide (10 μg) was added to each well and the plates cultured for 48 hours. The plates were then washed according to the manufacturer's protocol. PBMCs cultured with HIV-derived peptide or no added peptide were used as control.
The presence of circulating PAP-115-123 specific T cells in PBMCs isolated from patients with prostate cancer following treatment with DCs that had been transfected with mRNA isolated from the prostate cancer cell lines (DU145, LNCaP and PC3) as part of a Norwegian Clinical Trial which was performed by Professor Gustav Gaudernack was determined on the basis of their responsiveness to PAP-derived peptides. In the trial, DCs were isolated from patients with prostate cancer and cultured DCs were transfected with mRNA isolated from the prostate cancer cell lines (DU145, LNCaP and PC3). The matured DCs were re-infused back into the patients (FIG. 4). […]

Sequence: SAMTNLAAL [PAP-115-123]
- number of spots, pre-vaccination samples (1 μg peptide): 10-30 spots
- number of spots, post-vaccination samples (1 μg peptide, patients p12, p19, p101, p102, p107, p108): 60-140 spots
- number of spots, pre-vaccination samples (10 μg peptide): 10-30 spots
- number of spots, post-vaccination samples (10 μg peptide, patients p12, p15, p19, p102, p107, p108): 60-160 spots
- fold decrease in IFNγ response post vs pre vaccination, non-responders (4 non-responder patients, 10 μg peptide, ELISPOT): 2-12 fold and 2-10 fold
- fold higher peptide-specific IFNγ response post vs pre vaccination, responders (8 responder patients, 10 μg peptide, ELISPOT): 2-4 fold
- post-vaccination samples with significantly higher peptide-specific IFNγ response than pre-vaccination (1 μg peptide): 6
- post-vaccination samples with significantly higher peptide-specific IFNγ response than pre-vaccination (10 μg peptide): 6
